Laboratory results as given in publication PMC6669600 (Viruses, 2019).

molecular target: N36 (gp41 NHR-derived target mimic peptide) (Human immunodeficiency virus type 1 group M subtype B, UniProt P04578); test: CD spectroscopy of inhibitor complexed with N36; type: binding, HIV-1; conditions: α-helical content of complex, each peptide 10 μM in PBS pH 7.2, 20 C, [θ]222; repeated two times, representative data
Sequence (P04578 546-581): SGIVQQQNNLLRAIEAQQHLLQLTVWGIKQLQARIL

Substance	CD data (with N36) Helix (%)
Ac-WEEWDKKIEEYTKKIEELI-NH2 [SC19EK]	80.3
Ac-WEEWDRKIEEYTKKIEELIKKSQNQQIDL-NH2 [WQ-IDL, reference compound]	87.8
Ac-MTWEEWDKKIEEYTKKIEELIKKSEEQQKKNEKELK-NH2 [MT-SC34EK]	92
Ac-WEEWDKKIEEYTKKIEELIKKSEEQQKKNEKELK-NH2 [SC34EK, reference compound]	92.6
Ac-WEEWDKKIEEYTKKIEELIKKSEEQQKKNE-NH2 [SC30EK]	92.9
Ac-WEEWDKKIEEYTKKIEELIKKS-NH2 [SC22EK]	85.5
Ac-WEEWDKKIEEYTKKIEELIKKSEEQQKKN-NH2 [SC29EK, reference compound]	88.9
Ac-MTWEEWDKKIEEYTKKIEELIKKS-NH2 [MT-SC22EK]	84.6
Ac-MTWEEWDKKIEEYTKKIEELIKKSEE-NH2 [MT-SC24EK]	83.8
Ac-WEEWDKKIEEYTKKIEELIKKSEEQ-NH2 [SC25EK]	78.4
Ac-WEEWDKKIEEYTKKIEELIKK-NH2 [SC21EK]	82.8
Ac-MTWEEWDKKIEEYTKKIEELIKKSEEQQKK-NH2 [MT-SC28EK]	84.5
Ac-WEEWDKKIEEYTKKIEELIKKSEEQQ-NH2 [SC26EK]	83.1
Ac-MTWEEWDKKIEEYTKKIEELIKKSEEQQKKNEK-NH2 [MT-SC31EK]	92.4
Ac-MTWEEWDKKIEEYTKKIEELIKKSEEQQKKN-NH2 [MT-SC29EK]	92
Ac-WEEWDRKIEEYTKKIEELIKKSQNQQEKN-NH2 [WQ-EKN]	89.5
Ac-MTWEEWDKKIEEYTKKIEELIKKSEEQQKKNE-NH2 [MT-SC30EK]	92.6
Ac-MTWEEWDKKIEEYTKKIEELIKKSEEQQ-NH2 [MT-SC26EK]	85.2
Ac-MTWEEWDRKIEEYTKKIEELIKKSQNQQIDL-NH2 [MT-WQ-IDL, reference compound]	86.9

Substance	CD data (with N36) Helix (%)
Ac-MTWEEWDKKIEEYTKKIEELIKKSEEQQKKNEKEL-NH2 [MT-SC33EK]	93.8
Ac-MTWEEWDKKIEEYTKKIEEL-NH2 [MT-SC18EK]	56.3
Ac-WEEWDKKIEEYTKKIEELIKKSE-NH2 [SC23EK]	80.7
Ac-MTWEEWDKKIEEYTKKIEELIKKSEEQQKKNEKE-NH2 [MT-SC32EK]	91.8
Ac-MTWEEWDKKIEEYTKKIEELI-NH2 [MT-SC19EK]	84.8
Ac-MTWEEWDKKIEEYTKKIEELIK-NH2 [MT-SC20EK]	82
Ac-MTWEEWDRKIEEYTKKIEELIKKSQNQQEKN-NH2 [MT-WQ-EKN]	90.6
Ac-WEEWDKKIEEYTKKIEELIKKSEE-NH2 [SC24EK]	79.9
Ac-MTWEEWDKKIEEYTKKIEELIKKSEEQ-NH2 [MT-SC25EK]	84.9
Ac-WEEWDKKIEEYTKKIEELIKKSEEQQKKNEKE-NH2 [SC32EK]	93.2
Ac-WMEWDREINNYTSLIHSLIEESQNQQEKAEQELL-NH2 [C34N145A]	81
Ac-MTWEEWDKKIEEYTKKIEELIKKSEEQQK-NH2 [MT-SC27EK]	87.4
Ac-WEEWDKKIEEYTKKIEELIKKSEEQQKKNEKEL-NH2 [SC33EK]	94.1
Ac-WEEWDKKIEEYTKKIEELIKKSEEQQK-NH2 [SC27EK]	85.7
Ac-MTWEEWDKKIEEYTKKIEELIKK-NH2 [MT-SC21EK]	83.9
Ac-MTWEEWDKKIEEYTKKIEELIKKSE-NH2 [MT-SC23EK]	84.1
Ac-WEEWDKKIEEYTKKIEELIKKSEEQQKK-NH2 [SC28EK]	87.7
Ac-WEEWDKKIEEYTKKIEELIK-NH2 [SC20EK]	78.8
Ac-WEEWDKKIEEYTKKIEELIKKSEEQQKKNEK-NH2 [SC31EK]	91.4

molecular target: T1, N39 (gp41 NHR-derived target mimic peptide) (Human immunodeficiency virus type 1 group M subtype B, UniProt P04578); test: CD spectroscopy of inhibitor complexed with N39; type: binding, HIV-1; conditions: each peptide 10 μM in PBS, repeated two times, representative data
T1 construct: we further used the NHR-derived peptide N39
T1 sequence (P04578 528-566): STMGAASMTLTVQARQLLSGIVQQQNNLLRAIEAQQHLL

Substance	α-helical content of complex with N39 [%]
enfuvirtide	53
